#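 Protocol summary: plate cells (96-well), add compound at 5 concentrations, incubate 48 h, interpolate endpoints linearly. Definition used: TGI = concentration required for complete inhibition of growth.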
# Assays:
# Assay in all cases: inhibition of tumour cell growth, NCI panel, 48 h
# [1] = tested on: SW-620 colon
# [2] = tested on: SNB-75 CNS
# [3] = tested on: SR leukemia
# [4] = tested on: SN12C renal
# [5] = tested on: CAKI-1 renal
# [6] = tested on: OVCAR-8 ovarian
# [7] = tested on: CCRF-CEM leukemia
# [8] = tested on: HL-60(TB) leukemia
# [9] = tested on: HCT-116 colon
# [10] = tested on: SK-MEL-2 melanoma
# [11] = tested on: NCI-H460 lung
# [12] = tested on: OVCAR-5 ovarian
# [13] = tested on: HCC-2998 colon
# [14] = tested on: M19-MEL melanoma
# [15] = tested on: LXFL 529 NSCLC
# [16] = tested on: ACHN renal
# [17] = tested on: SK-MEL-5 melanoma
# [18] = tested on: SF-539 CNS
# [19] = tested on: DMS 273 small cell lung
# [20] = tested on: UACC-62 melanoma
# [21] = tested on: OVCAR-4 ovarian
# [22] = tested on: DMS 114 small cell lung
# [23] = tested on: NCI-H23 lung
# [24] = tested on: A549 NSCLC
# [25] = tested on: KM20L2 colon
# [26] = tested on: EKVX NSCLC
# [27] = tested on: SF-268 CNS
# [28] = tested on: NCI-H522 lung
# [29] = tested on: HCT-15 colon
# [30] = tested on: HT29 colon
# [31] = tested on: NCI-H226 lung
# [32] = tested on: M14 melanoma
# [33] = tested on: UO-31 renal
# [34] = tested on: K-562 leukemia
# [35] = tested on: UACC-257 melanoma
# [36] = tested on: RPMI-8226 leukemia
# [37] = tested on: LOX IMVI melanoma
# [38] = tested on: HOP-62 NSCLC
# [39] = tested on: TK-10 renal
# [40] = tested on: A498 renal
# [41] = tested on: COLO 205 colon
# [42] = tested on: HOP-92 NSCLC
# [43] = tested on: KM12 colon
# [44] = tested on: XF 498 CNS
# [45] = tested on: SK-OV-3 ovarian
# [46] = tested on: DLD-1 colon
# [47] = tested on: SK-MEL-28 melanoma
# [48] = tested on: U251 CNS
# [49] = tested on: RXF-631 renal
# [50] = tested on: SF-295 CNS
# [51] = tested on: MOLT-4 leukemia
# [52] = tested on: SNB-19 CNS
# [53] = tested on: IGROV1 ovarian
# [54] = tested on: 786-0 renal
# [55] = tested on: SNB-78 CNS
# [56] = tested on: MALME-3M melanoma
# [57] = tested on: OVCAR-3 ovarian
# [58] = tested on: RXF 393 renal
# [59] = tested on: HOP-18 NSCLC
structure (smiles),measurement,setting,value
COC(=O)C(NC(=O)c1ccccc1)C(c1c(O)cc(O)cc1O)P(=O)(OC)OC (stereo unspecified),TGI,[1],> 100 µM
same,TGI,[2],> 100 µM
same,TGI,[3],> 100 µM
same,TGI,[4],> 100 µM
same,TGI,[5],> 100 µM
same,TGI,[6],> 100 µM
same,TGI,[7],> 100 µM
same,TGI,[8],> 100 µM
same,TGI,[9],> 100 µM
same,TGI,[10],> 100 µM
same,TGI,[11],> 100 µM
same,TGI,[12],> 100 µM
same,TGI,[13],> 100 µM
same,TGI,[14],> 100 µM
same,TGI,[15],> 100 µM
same,TGI,[16],> 100 µM
same,TGI,[17],> 100 µM
same,TGI,[18],> 100 µM
same,TGI,[19],> 100 µM
same,TGI,[20],> 100 µM
same,TGI,[21],> 100 µM
same,TGI,[22],> 100 µM
same,TGI,[23],> 100 µM
same,TGI,[24],> 100 µM
same,TGI,[25],> 100 µM
same,TGI,[26],> 100 µM
same,TGI,[27],> 100 µM
same,TGI,[28],> 100 µM
same,TGI,[29],> 100 µM
same,TGI,[30],> 100 µM
same,TGI,[31],> 100 µM
same,TGI,[32],> 100 µM
same,TGI,[33],> 100 µM
same,TGI,[34],> 100 µM
same,TGI,[35],> 100 µM
same,TGI,[36],> 100 µM
same,TGI,[37],> 100 µM
same,TGI,[38],> 100 µM
same,TGI,[39],> 100 µM
same,TGI,[40],> 100 µM
same,TGI,[41],> 100 µM
same,TGI,[42],> 100 µM
same,TGI,[43],> 100 µM
same,TGI,[44],> 100 µM
same,TGI,[45],> 100 µM
same,TGI,[46],> 100 µM
same,TGI,[47],> 100 µM
same,TGI,[48],> 100 µM
same,TGI,[49],> 100 µM
same,TGI,[50],> 100 µM
same,TGI,[51],> 100 µM
same,TGI,[52],> 100 µM
same,TGI,[53],> 100 µM
COc1cc([C@@H]2Oc3cc4oc(-c5ccccc5)cc(=O)c4c(O)c3O[C@H]2OC)ccc1O,TGI,[2],25.1 µM
same,TGI,[54],20.8 µM
same,TGI,[3],18.5 µM
same,TGI,[4],25.5 µM
same,TGI,[5],34.4 µM
same,TGI,[7],27.8 µM
same,TGI,[8],8.08 µM
same,TGI,[9],19.6 µM
same,TGI,[10],31.2 µM
same,TGI,[11],15.2 µM
same,TGI,[13],26.5 µM
same,TGI,[14],24 µM
same,TGI,[15],25.2 µM
same,TGI,[16],23.1 µM
same,TGI,[18],30.6 µM
same,TGI,[19],14.4 µM
same,TGI,[20],37.7 µM
same,TGI,[21],29.1 µM
same,TGI,[23],32.4 µM
same,TGI,[27],19.7 µM
same,TGI,[31],38.4 µM
same,TGI,[32],24.7 µM
same,TGI,[34],25.9 µM
same,TGI,[36],25.9 µM
same,TGI,[55],38.2 µM
same,TGI,[38],26.9 µM
same,TGI,[40],32.3 µM
same,TGI,[41],50.2 µM
same,TGI,[42],39.5 µM
same,TGI,[45],34.1 µM
same,TGI,[46],21.2 µM
same,TGI,[56],30.6 µM
same,TGI,[47],16.8 µM
same,TGI,[49],32.6 µM
same,TGI,[51],21.3 µM
same,TGI,[53],53.1 µM
COc1ccc(-c2cc(-c3ccco3)c(C#N)c(=O)[nH]2)cc1,TGI,[1],> 100 µM
same,TGI,[2],> 100 µM
same,TGI,[54],> 100 µM
same,TGI,[4],> 100 µM
same,TGI,[6],> 100 µM
same,TGI,[7],> 100 µM
same,TGI,[8],> 100 µM
same,TGI,[9],> 100 µM
same,TGI,[11],> 100 µM
same,TGI,[12],> 100 µM
same,TGI,[13],> 100 µM
same,TGI,[14],> 100 µM
same,TGI,[15],> 100 µM
same,TGI,[16],> 100 µM
same,TGI,[18],53.9 µM
same,TGI,[19],> 100 µM
same,TGI,[20],> 100 µM
same,TGI,[21],> 100 µM
same,TGI,[22],> 100 µM
same,TGI,[23],> 100 µM
same,TGI,[24],> 100 µM
same,TGI,[25],> 100 µM
same,TGI,[26],> 100 µM
same,TGI,[27],> 100 µM
same,TGI,[28],54 µM
same,TGI,[29],> 100 µM
same,TGI,[57],53.8 µM
same,TGI,[30],> 100 µM
same,TGI,[31],> 100 µM
same,TGI,[32],> 100 µM
same,TGI,[33],> 100 µM
same,TGI,[34],> 100 µM
same,TGI,[35],> 100 µM
same,TGI,[36],> 100 µM
same,TGI,[55],> 100 µM
same,TGI,[37],> 100 µM
same,TGI,[38],72.1 µM
same,TGI,[39],> 100 µM
same,TGI,[40],> 100 µM
same,TGI,[41],> 100 µM
same,TGI,[42],> 100 µM
same,TGI,[58],> 100 µM
same,TGI,[43],> 100 µM
same,TGI,[59],74.8 µM
same,TGI,[45],72.2 µM
same,TGI,[46],> 100 µM
same,TGI,[56],75.7 µM
same,TGI,[47],> 100 µM
same,TGI,[48],40.1 µM
same,TGI,[49],> 100 µM
same,TGI,[50],> 100 µM
same,TGI,[51],> 100 µM
same,TGI,[52],> 100 µM
same,TGI,[53],> 100 µM
CCCCCCCCCCCCCCCC(=O)OCC1OC(n2cc(F)c(=O)[nH]c2=O)C(NC(=O)N(CCCl)N=O)C(O)C1O (stereo unspecified),TGI,[1],6.58 µM
same,TGI,[2],1.56 µM
same,TGI,[54],3.59 µM
same,TGI,[3],5.8 µM
same,TGI,[4],15.6 µM
same,TGI,[5],20.5 µM
same,TGI,[6],9.69 µM
same,TGI,[7],6.58 µM
same,TGI,[8],7.69 µM
same,TGI,[9],3.07 µM
same,TGI,[10],3.3 µM
same,TGI,[11],4.81 µM
same,TGI,[12],25.9 µM
same,TGI,[13],11.3 µM
same,TGI,[14],9.91 µM
same,TGI,[15],15.8 µM
same,TGI,[16],10.9 µM
same,TGI,[17],9.8 µM
same,TGI,[18],1.36 µM
same,TGI,[19],4.3 µM
same,TGI,[20],1.17 µM
same,TGI,[21],20.5 µM
same,TGI,[22],5.02 µM
same,TGI,[23],2.84 µM
same,TGI,[24],7.14 µM
same,TGI,[25],18.4 µM
same,TGI,[26],7.18 µM
same,TGI,[27],2.83 µM
same,TGI,[28],10 µM
same,TGI,[29],15.1 µM
same,TGI,[57],20.9 µM
same,TGI,[30],14.1 µM
same,TGI,[31],24 µM
same,TGI,[32],11.7 µM
same,TGI,[33],29.6 µM
same,TGI,[34],25.6 µM
same,TGI,[35],17.8 µM
same,TGI,[36],20.5 µM
same,TGI,[55],18.1 µM
same,TGI,[37],2.24 µM
same,TGI,[38],2.34 µM
same,TGI,[39],26.1 µM
same,TGI,[40],10.1 µM
same,TGI,[41],9.51 µM
same,TGI,[42],11.6 µM
same,TGI,[58],8.37 µM
same,TGI,[43],4.91 µM
same,TGI,[59],33.3 µM
same,TGI,[45],14.3 µM
same,TGI,[46],12.5 µM
same,TGI,[56],10.1 µM
same,TGI,[47],7.96 µM
same,TGI,[48],3.74 µM
same,TGI,[49],17.9 µM
same,TGI,[50],6.03 µM
same,TGI,[51],> 39.9 µM
same,TGI,[52],8.71 µM
same,TGI,[53],18.1 µM

# From PubChem BioAssay (NCI)
